# Data reported in patent US5051417A, “Indolythiadiazines for treating heart failure” (Les Laboratoires Beecham S.A., priority 1988, dated 1991).
# Experiments:
# [1] = tested on: canine cardiac PDE, CAM; assay: Canine cardiac PDE inhibition, CAM; type: biochemical; conditions: n in table
# [2] = molecular target: T1, canine cardiac PDE, CGI (Canis lupus familiaris, UniProt A0A8I3NYE0); assay: Canine cardiac PDE inhibition, CGI; type: biochemical; conditions: n in table
# T1 construct: CANINE CARDIAC PDE; from tissue; host or cells: dog heart
# T1 sequence (A0A8I3NYE0 1-1135): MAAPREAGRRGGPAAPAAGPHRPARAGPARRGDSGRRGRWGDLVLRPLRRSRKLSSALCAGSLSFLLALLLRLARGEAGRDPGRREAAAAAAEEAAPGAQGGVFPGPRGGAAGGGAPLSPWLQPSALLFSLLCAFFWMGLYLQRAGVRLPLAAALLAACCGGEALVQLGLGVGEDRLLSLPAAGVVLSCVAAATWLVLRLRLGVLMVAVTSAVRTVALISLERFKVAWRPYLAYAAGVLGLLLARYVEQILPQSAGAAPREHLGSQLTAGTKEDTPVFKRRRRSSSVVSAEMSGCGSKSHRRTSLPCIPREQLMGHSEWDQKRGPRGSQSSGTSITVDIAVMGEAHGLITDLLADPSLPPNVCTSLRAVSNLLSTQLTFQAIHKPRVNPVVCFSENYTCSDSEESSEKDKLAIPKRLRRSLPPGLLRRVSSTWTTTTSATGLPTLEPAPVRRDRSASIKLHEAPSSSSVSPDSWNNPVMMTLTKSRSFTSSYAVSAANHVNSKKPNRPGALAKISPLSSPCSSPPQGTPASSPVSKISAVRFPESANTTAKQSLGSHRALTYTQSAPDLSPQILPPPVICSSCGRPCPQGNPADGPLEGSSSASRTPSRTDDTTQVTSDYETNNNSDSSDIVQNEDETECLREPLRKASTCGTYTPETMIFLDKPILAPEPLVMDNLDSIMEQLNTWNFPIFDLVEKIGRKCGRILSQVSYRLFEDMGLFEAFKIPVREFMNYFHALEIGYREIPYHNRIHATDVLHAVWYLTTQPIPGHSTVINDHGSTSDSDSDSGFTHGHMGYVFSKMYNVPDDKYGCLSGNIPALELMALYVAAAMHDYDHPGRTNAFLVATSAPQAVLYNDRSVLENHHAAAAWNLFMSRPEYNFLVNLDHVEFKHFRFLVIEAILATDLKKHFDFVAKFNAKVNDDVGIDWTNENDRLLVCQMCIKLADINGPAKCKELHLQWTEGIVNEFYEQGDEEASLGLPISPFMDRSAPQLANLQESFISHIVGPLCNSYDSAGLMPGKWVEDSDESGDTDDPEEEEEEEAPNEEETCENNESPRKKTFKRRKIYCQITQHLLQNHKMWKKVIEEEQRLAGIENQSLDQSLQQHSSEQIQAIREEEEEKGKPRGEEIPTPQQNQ
# [3] = tested on: canine cardiac myofibrillar Ca++-dependent Mg++-ATPase; assay: Measurement of myofibrillar Ca++-dependent Mg++-ATPase activity on canine cardiac myofibrils; type: biochemical; conditions: 30 μM, pH 7.0, 21° C.; for max (percent change of maximal ATPase activity): pCa=5.47
# Protocol: 1. Measurement of myofibrillar Ca++-dependent Mq++-ATPase activity The effect on myofibrillar Ca++sensitivity and on maximal activity of myofibrillar Ca++-dependent Mg++-ATPase was determined on canine cardiac myofibrils. (a) Contractile protein preparation Cardiac myofibrils free of membrane contaminants were prepared from left ventricular tissue of dog hearts using a modification of the method described by SOLARO et al, Biochem. Biophys. Acta, 245, 259-262, (1971). Before centrifugation, the heart homogenate was filtered through gauze. After Triton X-100 treatments, the myofibrillar fraction was washed once by resuspension and centrifugation in 10 volumes of 1 mM EGTA, […], 30 mM imidazole, 2 mM MgCl2, pH 7.0. The pellet was then washed three times in 10 volumes of the same buffer without EGTA. Before the last centrifugation, the suspension of myofibrils was filtered through a stainless steel sieve with 0.25 mm meshes. Myofibrils were kept in pellet overnight. Before use, the pellet was suspended in a small amount of buffer, the protein concentration was determined by the method of BRADFORD M., Anal. Biochem., 1976, 72, 248 and adjusted in order to have a concentration between 6 and 7 mg/ml. (b) Myofibrillar ATPase activity Ca++-dependent myfibrillar ATPase activity was determined at 21° C., pH 7.0, by measuring the rate of release of inorganic phosphate. All assays were performed within 24hrs. of final purification, using the method described by SOLARO and […]., 51. 290-4,(1982). Reaction mixtures (4 ml) containing 0.6-0.7 mg/ml myofibrillar protein, 80mM KCl, 20 mM imidazole, 3 mM MgCl2, 1 mM EGTA, the desired amount of CaCl2, and the indicated concentration of drug or appropriate vehicle were preincubated for 6 min. prior to assay. The amount of CaCl2 was varied between 0 and 0.9 mM and the pCa (-log free Ca++) computed using 2.514×10^6 M^-1 as the apparent affinity of Ca++for EGTA at pH 7.0. Reactions were initiated by the addition of Na2 ATP to final concentration of 2 mM. After an incubation period of 12 min., reactions were quenched by the addition of an equal volume of ice-cold 10% trichloroacetic acid. The protein was pelleted by centrifugation (2000 g, 15 min.) and Pi was assayed in the supernatant fraction using a modification of the method described by LANZETTA et al, Anal. Biochem., 100, 95-97, (1979). The following solutions were prepared: (1) 3.7% ammonium heptamolybdate in 0.12 N H2 SO4 (2) 0.074% malachite green oxalate in 1% polyvinylic alcohol. The colour reagent was prepared by mixing an equal volume of solution (1) and (2) 15 min. before the assay. For the assay, 1,700 μl of 1% H2 SO4 and 1 ml of colour reagent were added to 100 μl of sample. Colour development occurred at room temperature for 30 min. and was quenched by the addition of 200 μl of 1M tri-potassium citrate. The absorbance was measured at 620 millimicrons. The effect of each compound, tested at the indicated concentration, on the relation between pCa and percent activation was determined taking 100% for the maximum ATPase activity obrained with vehicle alone. The effect on Ca++sensitivity was quantified by measuring the shift of the pCa giving 50% of the maximal control ATPase activity. The effect on maximal ATPase activity was expressed as the percent change of ATPase activity for pCa=5.47. Mean effects on myofibrillar ATPase activity were obtained from 1 to 5 preparations, (compounds tested at 2×10^-4 M).
# [4] = tested on: anaesthetised dog; assay: Cardiotonic activity in the dog (haemodynamics); type: in vivo, dog (male Beagle); conditions: i.v.
SMILES,IC50 [1],IC50 [2],max (percent change of maximal ATPase activity) [3],pCa (shift of the pCa giving 50% of the maximal control ATPase activity; Ca++ sensitivity) [3],further results
"CC1SC(=O)NN=C1c1ccc2c(c1)C(=NOc1ccccc1)C(=O)N2 (stereo not drawn) [Example 11, 1,3,-Dihydro-5-(3,6-dihydro-6-methyl-2-oxo-2H-1,3,4-thiadiazin-5-yl)-3-phenoxyimino-2H-indol-2-one]",> 300 µM,0.68 µM,8 ± 2%,+0.36 ± 0.05,
"CC1SC(=O)NN=C1c1ccc2c(c1)C(=Nc1ccccc1)C(=O)N2 (stereo not drawn) [Example 6, 1,3-6-Dihydro-5-(3,6-dihydro-6-methyl-2-oxo-2H-1,3,4-thiadiazin-5-yl)-3-phenylimino-2H-indol-2-one]",> 300 µM,1.2 µM,-2 ± 6%,+0.38 ± 0.06,
"CC1SC(=O)NN=C1c1ccc2c(c1)C(=Cc1ccccc1)C(=O)N2 (stereo not drawn) [Example 10, 1,3-Dihydro-5-(3,6-dihydro-6-methyl-2-oxo-2H-1,3,4-thiadiazin-5-yl)-3-phenylmethylene-2H-indol-2-one]",20 µM,0.35 µM,-13 ± 3%,+0.43 ± 0.07,
"CC1SC(=O)NN=C1c1ccc2c(c1)C(=NN)C(=O)N2 (stereo not drawn) [Example 7, 5-(3,6-Dihydro-6-methyl-2-oxo-2H-1,3,4-thiadiazin-5-yl)-1H -indole-2,3-dione 3-hydrazone]",42 µM,2.3 µM,-3 ± 5%,+0.17 ± 0.02,
"CC1SC(=O)NN=C1c1ccc2c(c1)C(=Nc1ccc(N(C)C)cc1)C(=O)N2 (stereo not drawn) [Example 14, 1,3-Dihydro-5-(3,6-dihydro-6-methyl-2-oxo-2H-1,3,4-thiadiazin-5-yl)-3-(4-dimethylaminophenylimino)-2H -indol-2-one]",5.6 µM,0.62 µM,0 ± 3%,+0.12 ± 0.02,
CC1SC(=O)NN=C1c1ccc2c(c1)C(=NNC1=NCCN1)C(=O)N2 (stereo not drawn) [Example 13],,14 µM,2 ± 2%,+0.07 ± 0.02,
"CC1SC(=O)NN=C1c1ccc2c(c1)C(=C(C#N)C#N)C(=O)N2 (stereo not drawn) [Example 9, [5-(3,6-Dihydro-6-methyl-2-oxo-2H-1,3,4-thiadiazin-5-yl) -1,2-dihydro-2-oxo-3H-indol-3-ylidene]-propane-dinitrile]",31 µM,2.1 µM,-20 ± 3%,+0.05 ± 0.07,
"CC1SC(=O)NN=C1c1ccc2c(c1)C(=NNc1ccc(C(C)(C)C)cc1)C(=O)N2 (stereo not drawn) [Example 24, 5-(3,6-Dihydro-6-methyl-2-oxo-2H-1,3,4-thiadiazin-5-yl) -1H-indole-2,3-dione 3-[4-(1,1-dimethylethyl)phenylhydrazone]]",,,-2 ± 5%,+0.49 ± 0.06,
"CC1SC(=O)NN=C1c1ccc2c(c1)C(=NNCc1ccccc1)C(=O)N2 (stereo not drawn) [Example 22, 5-(3,6-Dihydro-6-methyl-2-oxo-2H-1,3,4-thiadiazin-5-yl) -1H-indole-2,3-dione 3-[(phenylmethyl)hydrazone]]",,,21 ± 4%,+0.64 ± 0.1,

# Further lines, with some results ahead:
IC50 [1],IC50 [2],max (percent change of maximal ATPase activity) [3],pCa (shift of the pCa giving 50% of the maximal control ATPase activity; Ca++ sensitivity) [3],SMILES,further results
> 300 µM,0.44 µM,,,"CC1SC(=O)NN=C1c1ccc2c(c1)C(=NNC(N)=S)C(=O)N2 (stereo not drawn) [Example 4, 2-[2,3-Dihydro-5-(3,6-dihydro-6-methyl-2-oxo-2H-1,3,4-thiadiazin-5-yl)-2-oxo-1H-indol-3-ylidene]-hydrazine carbothioamide]",
,1.8 µM,-1 ± 2%,+0.08 ± 0.02,"CC1SC(=O)NN=C1c1ccc2c(c1)C(=NNC(=N)N)C(=O)N2 (stereo not drawn) [Example 12, 5-(3,6-Dihydro-6-methyl-2-oxo-2H-1,3,4-thiadiazin-5-yl) -1H-indole-2,3-dione 3-[2-(aminomethanimino)hydrazone]]",
4 µM,1.9 µM,-28 ± 4%,+0.04 ± 0.08,CC1SC(=O)NN=C1c1ccc2c(c1)C(=Cc1ccncc1)C(=O)N2 (stereo not drawn) [Example 18],
,,26 ± 7%,+0.43 ± 0.04,"CC1SC(=O)NN=C1c1ccc2c(c1)C(=NNc1ccccc1C(F)(F)F)C(=O)N2 (stereo not drawn) [Example 31, 5-(3,6-Dihydro-6-methyl-2-oxo-2H-1,3,4-thiadiazin-5-yl) -1H-indole-2,3-dione 3-[(2-trifluoromethyl)phenylhydrazone]]",AoBF ([4]; 0.01 mg/kg): +11 ± 5%; AoBP ([4]; 0.01 mg/kg): -8 ± 1%; H.R. ([4]; 0.01 mg/kg): +8 ± 2%; dP/dt Max ([4]; 0.01 mg/kg): +9 ± 3%; AoBF ([4]; 0.03 mg/kg): +19 ± 8%; AoBP ([4]; 0.03 mg/kg): -15 ± 1%; H.R. ([4]; 0.03 mg/kg): +30 ± 4%; dP/dt Max ([4]; 0.03 mg/kg): +44 ± 13%; AoBF ([4]; 0.1 mg/kg): +13 ± 6%; AoBP ([4]; 0.1 mg/kg): -23 ± 2%; H.R. ([4]; 0.1 mg/kg): +39 ± 6%; dP/dt Max ([4]; 0.1 mg/kg): +93 ± 13%
